This is an account of results in patent publication US11999782B2, “Therapeutic agents for the treatment of diseases associated with undesired cell proliferation” (Fundació Privada Institutció Catalana de Recerca I Estudis …, priority 2009, dated 2024).

In test [1] the test system is GICs (glioma initiating cells) / GBM neurospheres. The test can be described thus: Self-renewal assay of GBM neurospheres (GICs derived from patients). It counts as cell-based, human. To be noted: added with 100 pM TGFβ1; 2 μM TβRI inhibitor, anti-LIF neutralizing antibody or 0.5 pM P6; absence of EGF and FGF. On the procedure:
FIG. 1. Effect of TGFβ on the self-renewal of GIC derived from patients. (A) Representative images of PCTCs and neurospheres of GBM generated from samples of 3 different patients with GBM (GBM1, GBM2, GBM3). (B) Musashi-1 (Msi-1), Sox2, Nestin and β-actin were determined by means of RT-PCR analysis of PCTCs and neurospheres of 3 samples of human GBM. (C) 100,000 neurosphere (nsph.) or PCTC cells obtained from samples of GBM1, GBM2 and GBM3 tumors were intracranially inoculated in three Balbc nu/nu mice in each case. Magnetic resonance imaging (MRI) studies were performed on days 30-40 in each mouse. The images represent an example of mice inoculated with neurosphere or PCTC cells obtained from GBM1. The mice were weighed twice a week. The graph represents mice inoculated with cells derived from GBM1. (D and E) Neurosphere cells of the indicated GBMs were incubated in the absence of growth factors with 100 pM TGFβ1 and/or 2 μM TβRI inhibitor for 7 days and the number of newly formed neurospheres (D) and the total number of cells (E) were determined. (F) Representative images of GBM1 neurospheres treated as indicated in D and E.
FIG. 6. LIF mediates the increase of self-renewal of GIC by TGFβ. (A, B) GBM1, GBM2 and GBM3 neurosphere cells were treated with 100 pM TGFβ1, 20 ng/ml LIF and/or anti-LIF neutralizing antibody and 0.5 pM P6 in the absence of EGF and FGF and the number of newly formed neurospheres (A) or the total number of cells (B) was determined. (C) Representative images of GBM1 neurospheres treated as indicated in A and B.
The self-renewal of the neurospheres was evaluated by seeding an identical number of cells at a very low density in wells of a 96-well plate. The cells were treated, in the absence of growth factors, with the indicated compounds and the total number of new neurospheres formed after 7 days in culture was counted (Lee et al. (2008) Cancer Cell 13, 69-80; Reynolds and Weiss, (1996) Dev Biol 175, 1-13; Seaberg and van der Kooy, (2002) J Neurosci 22, 1784-1793).
It was decided to evaluate the effect of TGFβ on the capacity for self-renewal of GICs following a well described protocol based on the capacity of GICs to generate neurospheres (Reynolds and Weiss, 1996, Dev Biol. 175:1-13; Seaberg and van der Kooy, 2002, J Neurosci 22:1784-1793). The neurospheres derived from patients were disassociated into individual cells, treated with TGFβ or left untreated for 7 days in the absence of growth factors and the newly formed neurospheres and the total number of cells were counted. Following this protocol, the effect of TGFβ on the capacity for self-renewal of the GICs derived from three different patients was evaluated. […] These effects were blocked when an TGFβ I receptor inhibitor (TβRI) was added at the same time as TGFβ.
It was decided to assess whether LIF and JAK-STAT pathway mediated the increase of self-renewal of GICs by TGFβ. For this purpose, the neutralizing antibody against LIP and P6 was used to specifically block the effect of the secreted LIP on cells treated with TGFβ. The neurospheres were disassociated into individual cells and were treated with TGFβ, recombinant LIF, anti-LIF antibody and/or P6. The newly formed neurospheres and the total number of cells were counted. […] The treatment with the neutralizing antibody of LIP decreased the induction of the self-renewal of GICs by TGFβ.

For test [2], the system named is STAT3 phosphorylation (JAK-STAT pathway). Nature of the test: p-STAT3 Western blotting in GBM1 neurospheres. It counts as cell-based, human. On the procedure: FIG. 5. TGFβ induces the LIF-JAK-STAT pathway in GEM neurospheres derived from patients. (A) The levels of p-STAT3 and STAT3 were determined by means of Western blotting of neurospheres of the sample of GBM1 treated with 20 ng/ml LIF for the indicated time periods. (B) The neurospheres of the sample of GBM1 were treated with 20 ng/ml LIF and/or 0.5 pM P6 for 15 minutes and the levels of total p-STAT3 and STAT3 were determined by means of Western blotting. (C) The neurospheres of the sample of GBM1 were treated with 100 pM TGFβ1 or the 2 pM TβRI inhibitor for 4 hours in the absence of EFG and FGF and the levels of p-STAT3, STAT3, p-Smad2, Smad2 and α-tubulin were determined by means of Western blotting. (D) the neurospheres of the sample of GBM1 were treated with 100 pM TGFβ1, 0.5 μM P6 or the blocking antibody against LIF for 4 hours in the absence of EGF and FGF and the levels of total p-STAT3 and STAT3 were determined by means of Western blotting.
Genomic DNA of U373MG was used to amplify the −634/+32 region of the human LIF promoter which was cloned into the pGL2-basic luciferase vector. The deletion constructs (−267/+32), and (−73/+32) were generated by means of digestion of the construct (−634/+32). Two point mutations were introduced in positions −183 bp and −184 bp in the construct (−267/+32) to interrupt the Smad binding element (SBE) and generate the construct (−267/+32) mutSBE. TGFβ1, TGFβ2, TGFβ3 (R&D Systems), TβRI inhibitor (SB431542, Tocris), LIF (Chemicon), the neutralizing antibodies against LIF (R&D), JAK inhibitor (tetracyclic pyridone 6 (P6) Calbiochem), the assembly of SMART siRNAs targeted to Smad2, Smad3 and Smad4 (Dharmacon), and the control siRNA siGlo (Dharmacon) were used at the indicated concentrations. The antibodies specific against p-Smad2, Smad2, p-STAT3 (p-Tyr705) and total STAT3 (Cell Signalling) and against Smad2, Smad3 and Smad4 (Hata et al., (2000) Cell 100, 229-240) were used for Western blotting.
In order to distinguish whether the LIF signaling pathway is functional in GEM neurospheres, the neurospheres were treated with recombinant LIF and the levels of phosphorylation of the downstream substrate of the LIF receptor complex, STAT3, were determined. […] Furthermore, the induction of p-STAT3 was prevented by the presence of a pharmacological JAK-specific, tetracyclic pyridone 6 (P6) (Pedranzini et al., 2006, Cancer Res, 66: 9714-9721; Thompson et al., 2002, Bioorg Med Chem Lett, 12:1219-1223) (FIG. 5B). […] It was decided to assess whether LIP was mediating the induction of p-STAT3 by TGFβ. For this purpose, a neutralizing antibody against LIF was used to specifically block the effect of secreted LIP on cells treated with TGFβ. The presence of the neutralizing antibody of LIP decreased the induction of p-STAT3 by TGFβ. Furthermore, the levels of p-STAT3 in cells treated with TGFβ were repressed by means of the treatment with P6 (FIG. 5D).

As to `CC(C)(C)c1nc2c3ccc(F)cc3c3c(=O)[nH]ccc3c2[nH]1` [P6, tetracyclic pyridone 6], the “effect on the induction of self-renewal of GICs by TGFβ (number of neurospheres, total number of cells)” value in test [1] is reported as “repressed”. Moreover, the “effect on the induction of p-STAT3 by TGFβ” value in test [2] (100 pM TGFβ1, 4 hours, absence of EGF and FGF, 2 pM TβRI inhibitor, 0.5 μM P6 or blocking antibody against LIF) is listed as “repressed”. Further, the “effect on the induction of p-STAT3 by LIF” value in test [2] (20 ng/ml LIF and 0.5 pM P6, 15 minutes) is “prevented”.
